Data: patent US8268827B2, “Pyridazinone derivatives as PARP inhibitors” (Istituto di Ricerche di Biologia Molecolare P. Angeletti …, priority 2007, dated 2012)
pIC50: −log10 of the molar value. Structures can show the parent of a compound that is named as a salt.

Key:
PARP-1 = target: T1, PARP-1 (Homo sapiens, UniProt P09874); assay: PARP-1 SPA assay; format: biochemical
T1 construct: purchased Trevigen 4668-500-01
Description: Assay buffer: 100 mM Tris pH 8, 4 mM MgCl2, 4 mM Spermine, 200 mM KCl, 0.04% Nonidet P-40.
Nicotinamide-adenine dinucleotide (NAD)/DNA Mix: [^3H-NAD] (250 uCi/ml, 0.4 ul, Perkin-Elmer NET-443H), NAD (1.5 mM, 0.05 ul, SIGMA N-1511), Biotinylated-NAD (250 uM, 0.03 ul, Trevigen 4670-500-01), Activated calf thymus (1 mg/ml, 0.05 ul, Amersham Biosciences 27-4575), H2O (to 10 ul).
Developing Mix: Streptavidin SPA beads (5 mg/ml, Amersham Biosciences RPNQ 0007) dissolved in 500 mM EDTA.
The reaction is performed in 96-well microplate with a final volume of 50 uL/well. Add 5 ul 5% DMSO/compound solution, add enzyme mix (35 ul), start the reaction by adding NAD/DNA mix (10 uL) and incubate for 2 hrs at RT. Stop the reaction by adding developing mix (25 ul) and incubate 15 min at RT. Measure using a Packard TOP COUNT instrument.

[1] = tested on: BRCA-1 silenced HeLa cells (HeLa shBRCA1-GFP); assay: Proliferation assay in BRCA-1 silenced HeLa cells; format: cell-based; settings: Homo sapiens; BRCA1 silenced HeLa cells, 168 hours; read-out: CC50 in the BRCA1 silenced HeLa cells
Procedure, shortened: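 HeLa cells with lentiviral shRNA BRCA1 knockdown (>80%), compared with control-vector HeLa, seeded at 300 cells/well. Compound exposure lasted 168 h at 37° C. Viability was read as resazurin-to-resorufin fluorescence (ex 550/em 590 nm).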

T1 sequence (P09874 whole entry): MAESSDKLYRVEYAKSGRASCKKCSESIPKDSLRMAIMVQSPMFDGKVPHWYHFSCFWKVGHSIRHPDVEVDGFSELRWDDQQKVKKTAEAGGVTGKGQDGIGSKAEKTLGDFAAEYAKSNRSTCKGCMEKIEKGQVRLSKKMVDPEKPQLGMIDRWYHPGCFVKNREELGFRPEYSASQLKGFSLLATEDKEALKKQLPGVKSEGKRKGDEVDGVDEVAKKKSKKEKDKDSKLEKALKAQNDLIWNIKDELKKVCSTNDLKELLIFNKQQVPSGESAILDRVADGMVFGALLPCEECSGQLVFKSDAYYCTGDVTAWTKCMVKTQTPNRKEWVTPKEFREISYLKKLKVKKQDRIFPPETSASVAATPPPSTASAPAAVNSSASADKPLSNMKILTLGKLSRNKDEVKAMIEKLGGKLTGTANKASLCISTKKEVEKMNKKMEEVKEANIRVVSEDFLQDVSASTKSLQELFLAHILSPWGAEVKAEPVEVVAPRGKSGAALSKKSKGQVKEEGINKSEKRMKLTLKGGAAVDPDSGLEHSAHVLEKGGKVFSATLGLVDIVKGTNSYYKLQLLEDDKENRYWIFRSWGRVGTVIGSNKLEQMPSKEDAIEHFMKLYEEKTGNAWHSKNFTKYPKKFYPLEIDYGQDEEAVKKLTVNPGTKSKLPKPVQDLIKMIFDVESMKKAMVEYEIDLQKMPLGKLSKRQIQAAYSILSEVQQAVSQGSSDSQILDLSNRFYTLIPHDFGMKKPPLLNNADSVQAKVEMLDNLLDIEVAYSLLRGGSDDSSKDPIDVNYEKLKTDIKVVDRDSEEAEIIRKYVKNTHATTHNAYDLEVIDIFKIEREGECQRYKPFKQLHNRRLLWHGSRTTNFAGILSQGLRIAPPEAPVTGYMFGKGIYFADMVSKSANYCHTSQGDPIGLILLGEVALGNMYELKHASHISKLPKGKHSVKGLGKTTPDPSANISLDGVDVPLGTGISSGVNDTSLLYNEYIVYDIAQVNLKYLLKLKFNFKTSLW

pIC50 (PARP-1) | Compound | CC50 [1] [nM]
> 8.30 | Cc1c(Cc2ccc(F)c(C(=O)N3CC(=O)N(c4ccccc4)C(C)C3)c2)n[nH]c(=O)c1C (racemic) [Example 78 (LL4), 3-[4-Fluoro-3-(3-methyl-5-oxo-4-phenyl-piperazine-1-carbonyl)-benzyl]-4,5-dimethyl-6-oxo-1,6-dihydro-pyridazin-1-ium trifluoroacetate] | < 50
> 8.30 | Cc1c(Cc2ccc(F)c(C(=O)N3CC(=O)N(c4ccc(F)cc4)C(C)C3)c2)n[nH]c(=O)c1C (racemic) [Example 79, 3-{4-Fluoro-3-[4-(4-fluoro-phenyl)-3-methyl-5-oxo-piperazine-1-carbonyl]-benzyl}-4,5-dimethyl-6-oxo-1,6-dihydro-pyridazin-1-ium trifluoroacetate] | < 50
7.60 to 8.30 | C[C@@H]1CCC[C@H]2CN(C(=O)c3cc(Cc4cc(C(F)(F)F)c(=O)[nH]n4)ccc3F)CC(=O)N21 (racemic) [Example 87, 6-{4-Fluoro-3-[(cis-6-methyl-4-oxooctahydro-2H-pyrido[1,2-a]pyrazin-2-yl)carbonyl]benzyl}-3-oxo-4-(trifluoromethyl)-2,3-dihydropyridazin-1-ium trifluoroacetate] | < 50
7.60 to 8.30 | O=C(c1cc(Cc2cc(C(F)(F)F)c(=O)[nH]n2)ccc1F)N1CC(=O)N2CCCCC2C1 (racemic) [Example 91, 2-(2-Fluoro-5-{[6-oxo-5-(trifluoromethyl)-1,6-dihydropyridazin-3-yl]methyl}benzoyl)octahydro-4H-pyrido[1,2-a]pyrazin-4-one] | 50 to 500
> 8.30 | Cc1c(Cc2ccc(F)c(C(=O)N3CCN([C@H]4CC[C@@H](F)C4)C(=O)C3)c2)n[nH]c(=O)c1C (relative stereo) [Example 80, cis-3-{4-Fluoro-3-[4-(3-fluoro-cyclopentyl)-3-oxo-piperazine-1-carbonyl]-benzyl}-4,5-dimethyl-6-oxo-1,6-dihydro-pyridazin-1-ium trifluoroacetate] | 50 to 500
7.60 to 8.30 | Cc1c(Cc2ccc(F)c(C(=O)N3CCN([C@H]4CC[C@H](F)C4)C(=O)C3)c2)n[nH]c(=O)c1C (relative stereo) [Example 212, 6-[4-Fluoro-3-({4-[(trans)-3-fluorocyclopentyl]-3-oxopiperazin-1-yl}carbonyl)benzyl]-4,5-dimethylpyridazin-3(2H)-one] | –
7.60 to 8.30 | Cc1c(Cc2ccc(F)c(C(=O)N3CC(=O)N(c4ccccc4)[C@@H](C)C3)c2)n[nH]c(=O)c1C (single isomer, unassigned) [78 (LL4A)] | 50 to 500
> 8.30 | O=C(c1cc(Cc2cc(C(F)(F)F)c(=O)[nH]n2)ccc1F)N1CC(=O)N2CCCC[C@H]2C1 (single isomer, unassigned) [92 (ZZ1)] | < 5000
7.60 to 8.30 | O=C(c1cc(Cc2cc(C(F)(F)F)c(=O)[nH]n2)ccc1F)N1CC(=O)N2CCCC[C@@H]2C1 (single isomer, unassigned) [92 (ZZ2)] | 50 to 500
> 8.30 | Cc1c(Cc2ccc(F)c(C(=O)N3CC(=O)N(c4ccccc4)[C@H](C)C3)c2)n[nH]c(=O)c1C (single isomer, unassigned) [Example 78 (LL4B)] | < 50
7.60 to 8.30 | Cc1c(Cc2ccc(F)c(C(=O)N3CCN(C)C(=O)C3)c2)n[nH]c(=O)c1C [Example 7, 3-{4-Fluoro-3-[(4-methyl-3-oxopiperazin-1-yl)carbonyl]benzyl}-4,5-dimethyl-6-oxo-1,6-dihydropyridazin-1-ium trifluoroacetate] | –
7.60 to 8.30 | COC(=O)CN1CCN(C(=O)c2cc(Cc3n[nH]c(=O)c(C)c3C)ccc2F)CC1=O [Example 24, Methyl (4-{5-[(4,5-dimethyl-6-oxo-1,6-dihydropyridazin-3-yl)methyl]-2-fluorobenzoyl}-2-oxopiperazin-1-yl)acetate trifluoroacetate] | –
7.60 to 8.30 | Cc1c(Cc2ccc(F)c(C(=O)N3CCN(c4ccccn4)C(=O)C3)c2)n[nH]c(=O)c1C [Example 31, 3-{4-Fluoro-3-[(3-oxo-4-pyridin-2-ylpiperazin-1-yl)carbonyl]benzyl}-4,5-dimethyl-6-oxo-1,6-dihydropyridazin-1-ium trifluoroacetate] | < 5000
7.60 to 8.30 | Cc1c(Cc2ccc(F)c(C(=O)N3CC(=O)N4CCCCC4C3)c2)n[nH]c(=O)c1C (centres unmarked) [Example 32, 6-{4-Fluoro-3-[(4-oxooctahydro-2H-pyrido[1,2-a]pyrazin-2-yl)carbonyl]benzyl}-4,5-dimethyl-3-oxo-2,3-dihydropyridazin-1-ium trifluoroacetate] | < 50
7.60 to 8.30 | Cc1c(Cc2ccc(F)c(C(=O)N3CCCN(C4CCCCC4)C(=O)C3)c2)n[nH]c(=O)c1C [Example 34, 6-{3-[(4-Cyclohexyl-3-oxo-1,4-diazepan-1-yl)carbonyl]-4-fluorobenzyl}-4,5-dimethyl-3-oxo-2,3-dihydropyridazin-1-ium trifluoroacetate] | –
6.82 to 7.60 | Cc1c(Cc2ccc(F)c(C(=O)N3CCN(C4CCCCC4)C(=O)C3(C)C)c2)n[nH]c(=O)c1C [Example 37, 3-{3-[(4-Cyclohexyl-2,2-dimethyl-3-oxopiperazin-1-yl)carbonyl]-4-fluorobenzyl}-4,5-dimethyl-6-oxo-1,6-dihydropyridazin-1-ium trifluoroacetate] | –
6.82 to 7.60 | Cc1c(Cc2ccc(F)c(C(=O)N3C[C@@H]4C[C@H]3C(=O)N4c3ccccc3)c2)n[nH]c(=O)c1C [Example 41, (1S,4S)-5-{5-[(4,5-Dimethyl-6-oxo-1,6-dihydropyridazin-3-yl)methyl]-2-fluorobenzoyl}-2-phenyl-2,5-diazabicyclo[2.2.1]heptan-3-one trifluoroacetate] | –
7.60 to 8.30 | Cc1c(Cc2ccc(F)c(C(=O)N3CCN(CCF)C(=O)C3)c2)n[nH]c(=O)c1C [Example 58, 6-(4-Fluoro-3-{[4-(2-fluoroethyl)-3-oxopiperazin-1-yl]carbonyl}benzyl)-4,5-dimethyl-3-oxo-2,3-dihydropyridazin-1-ium trifluoroacetate] | –
6.82 to 7.60 | Cc1c(Cc2ccc(F)c(C(=O)N3CCCN(C4CC4)C(=O)C3)c2)n[nH]c(=O)c1C [Example 82, 1-Cyclopropyl-4-{5-[(4,5-dimethyl-6-oxo-1,6-dihydropyridazin-3-yl)methyl]-2-fluorobenzoyl}-1,4-diazepan-2-one] | –
6.82 to 7.60 | Cc1c(Cc2ccc(F)c(C(=O)N3CC(=O)N(C4CCCCC4)CC3(C)C)c2)n[nH]c(=O)c1C [Example 93, 3-{3-[(4-Cyclohexyl-2,2-dimethyl-5-oxopiperazin-1-yl)carbonyl]-4-fluorobenzyl}-4,5-dimethyl-6-oxo-1,6-dihydropyridazin-1-ium trifluoroacetate] | –
7.60 to 8.30 | CCN1CCN(C(=O)c2cc(Cc3n[nH]c(=O)c(C(F)(F)F)c3C)ccc2F)CC1=O [Example 143, 6-{3-[(4-Ethyl-3-oxopiperazin-1-yl)carbonyl]-4-fluorobenzyl}-5-methyl-4-(trifluoromethyl)pyridazin-3(2H)-one] | –
– | Cc1c(Cc2ccc(F)c(C(=O)N3CC(=O)N(c4ccc(F)c(F)c4)[C@H](C)C3)c2)n[nH]c(=O)c1C [Example 203, 6-(3-{[(3R)-4-(3,4-Difluorophenyl)-3-methyl-5-oxopiperazin-1-yl]carbonyl}-4-fluorobenzyl)-4,5-dimethylpyridazin-3(2H)-one] | < 50
– | Cc1c(Cc2ccc(F)c(C(=O)N3CCN(C(C)C4CC4)C(=O)C3)c2)n[nH]c(=O)c1C (centres unmarked) [Example 204, 6-(3-{[4-(1-Cyclopropylethyl)-3-oxopiperazin-1-yl]carbonyl}-4-fluorobenzyl)-4,5-dimethylpyridazin-3(2H)-one] | 50 to 500
– | Cc1c(Cc2ccc(F)c(C(=O)N3CC(=O)N(c4cc(Cl)ccc4F)[C@H](C)C3)c2)n[nH]c(=O)c1C [Example 205, 6-(3-{[(3R)-4-(5-Chloro-2-fluorophenyl)-3-methyl-5-oxopiperazin-1-yl]carbonyl}-4-fluorobenzyl)-4,5-dimethylpyridazin-3(2H)-one] | < 50
– | Cc1c(Cc2ccc(F)c(C(=O)N3CC(=O)N(c4cccc(Cl)c4F)[C@H](C)C3)c2)n[nH]c(=O)c1C [Example 206, 6-(3-{[(3R)-4-(3-Chloro-2-fluorophenyl)-3-methyl-5-oxopiperazin-1-yl]carbonyl}-4-fluorobenzyl)-4,5-dimethylpyridazin-3(2H)-one] | < 50
– | Cc1c(Cc2ccc(F)c(C(=O)N3CC(=O)N(c4ccc(Cl)c(F)c4)[C@@H](C)C3)c2)n[nH]c(=O)c1C [Example 208, 6-(3-{[(3S)-4-(4-Chloro-3-fluorophenyl)-3-methyl-5-oxopiperazin-1-yl]carbonyl}-4-fluorobenzyl)-4,5-dimethylpyridazin-3(2H)-one] | < 50
– | Cc1c(Cc2ccc(F)c(C(=O)N3CC(=O)N(C4CC(F)(F)C4)[C@@H](C)C3)c2)n[nH]c(=O)c1C [Example 209, 6-(3-{[(3S)-4-(3,3-Difluorocyclobutyl)-3-methyl-5-oxopiperazin-1-yl]carbonyl}-4-fluorobenzyl)-4,5-dimethylpyridazin-3(2H)-one] | < 50
